These results are taken from patent US8178506B2, “Oligomeric compounds and compositions for use in modulation of small non-coding RNAs” (Regulus Therapeutics Inc., priority 2003, dated 2012).

In the oligonucleotide strings, read from the 5' end, every base follows the letter of its sugar. An asterisk marks phosphorothioate; unmarked linkages are phosphodiester. Other units and linkages are bracketed, terminal groups are in braces. A string of capitals states the bases alone. e = 2'-O-(2-methoxyethyl) (MOE); [5mC] = 5-methylcytosine

Holding throughout (assay type): cell-based, human
For one series, the system named is preadipocytes. The series is described as follows: Caspase assay in preadipocytes. Conditions: untreated control set equal to 1.0. From the text:
The effect of oligomeric compounds of the present invention targeting miRNAs was examined in preadipocytes (Zen-Bio, Inc., Research Triangle Park, N.C.) using the fluorometric caspase assay previously described in Example 11.

In series [1] the test system is differentiated adipocytes. The series is described as follows: Hallmark genes and triglycerides in differentiated adipocytes. Conditions: Table 28; differentiated adipocytes transfected day nine post-differentiation; 250 nM oligonucleotide. From the text: The effect of the oligomeric compounds of the present invention targeting miRNAs on the expression of markers of cellular differentiation was examined in differentiated adipocytes.
As previously described, the HSL, aP2, Glut4, and PPARγ genes play important rolls in the uptake of glucose and the metabolism and utilization of fats. Also as previously described, an increase in triglyceride content is another well-established marker for adipocyte differentiation. Human white preadipocytes (Zen-Bio Inc., Research Triangle Park, N.C.) were grown in preadipocyte media (ZenBio Inc.). After the cells reached confluence (approximately three days), they were exposed to differentiation media (Zen-Bio, Inc.) containing a PPAR-γ agonist, IBMX, dexamethasone, and insulin for three days. Cells were then fed Adipocyte Medium (Zen-Bio, Inc.), which was replaced at 2 to 3 day intervals. One day before transfection, 96-well plates were seeded with 3000 cells/well. Cells were then transfected on day nine post-differentiation, according to standard published procedures with 250 nM oligonucleotide in LIPOFECTIN™ (Invitrogen Corporation, Carlsbad, Calif.) (Monia et al., J. Biol. Chem. 1993 268(19):14514-22). Oligomeric compounds were tested in triplicate on each 96-well plate, and the effect of TNF-α, known to inhibit adipocyte differentiation, was also measured in triplicate. Oligomeric compound treatments and transfectant-only negative controls may be measured up to six times per plate. On day twelve post-differentiation, cells were washed and lysed at room temperature, and the expression of the four hallmark genes, HSL, aP2, Glut4, and PPARγ, as well as triglyceride (TG) accumulation were measured in adipocytes transfected with the uniform 2′-MOE phosphorothioate (PS) previously described in Example 13 as well as the chimeric gapmer oligomeric compounds targeting the mir-143 miRNA and the mir-143 pri-miRNA described in Example 16. On day twelve post-differentiation, cells were lysed in a guanadinium-containing buffer and total RNA was harvested. The amount of total RNA in each sample was determined using a Ribogreen Assay (Molecular Probes, Eugene, Oreg.). Real-time PCR was performed on the total RNA using primer/probe sets for the adipocyte differentiation hallmark genes Glut4, HSL, aP2, and PPARγ. Triglyceride levels as well as mRNA levels for each of the four adipocyte differentiation hallmark genes are expressed relative to control levels (control=treatment with ISIS-29848 (SEQ ID NO: 737)).

A further series concerns BJ cells. The series is described as follows: Cell cycle assay in BJ cells. Conditions: 200 nM, 48 hours, relative to untreated control.

For the substance “327941 (antisense eA*eA*e[5mC]*e[5mC]*e[5mC]*eA*e[5mC]*e[5mC]*eG*eA*e[5mC]*eA*eG*e[5mC]*eA*eA*eT*eG*eA*eA*eT*eG*eT*eT) [compound 327941]”, in the series on preadipocytes, the “Fold Increase over UTC (caspase activity)” value (“Fold Increase over UTC” for short) is 1.3 fold over UTC. In series [1], this substance yielded a Glut4 of 0.90, an HSL of 1.17, a PPAR gamma of 1.66 and a TG of 1.33. In series [1], this substance displayed an aP2 of 0.90.
In the case of “327922 (antisense eT*e[5mC]*eA*eG*eT*eT*eT*eT*eG*e[5mC]*eA*eT*eG*eG*eA*eT*eT*eT*eG*e[5mC]*eA*e[5mC]*eA) [compound 327922]”, in the series on preadipocytes, the “Fold Increase over UTC” value came out at 1.0 fold over UTC. In addition, in series [1], the Glut4 is given as 0.61, the HSL amounted to 1.01, the PPAR gamma was 0.99 and the TG amounted to 1.48. Further, the aP2 in series [1] amounted to 0.91.
For “327903 (antisense eA*eA*e[5mC]*eT*eA*eT*eA*e[5mC]*eA*eA*e[5mC]*e[5mC]*eT*eA*e[5mC]*eT*eA*e[5mC]*e[5mC]*eT*e[5mC]*eA) [compound 327903]”, the “Fold Increase over UTC” value in the series with preadipocytes was 1.6 fold over UTC. In series [1], this substance came in with a Glut4 of 0.36, an HSL of 0.53, a PPAR gamma of 0.91 and a TG of 1.12. In series [1], this substance displayed an aP2 of 0.56.
For the substance “327901 (antisense eT*eG*eA*eG*e[5mC]*eT*eA*e[5mC]*eA*eG*eT*eG*e[5mC]*eT*eT*e[5mC]*eA*eT*e[5mC]*eT*e[5mC]*eA) [compound 327901]”, the “Fold Increase over UTC” value in the series on preadipocytes was determined as 2.0 fold over UTC. Also, in series [1], the Glut4 was found to be 2.20, the HSL is on record as 1.47, the PPAR gamma worked out at 1.34 and the TG turned out to be 1.12. In addition, the aP2 in series [1] was determined as 1.28.
Consider “327888 (antisense eA*eA*eT*eG*e[5mC]*e[5mC]*e[5mC]*e[5mC]*eT*eA*eA*eA*eA*eA*eT*e[5mC]*e[5mC]*eT*eT*eA*eT) [compound 327888]”, for which, in the series on preadipocytes, the “Fold Increase over UTC” value is 1.1 fold over UTC. In series [1], the Glut4 is listed as 0.56, the HSL came to 0.84, the PPAR gamma was 1.69 and the TG came to 1.13. In series [1], this substance had an aP2 of 0.73.
In the case of “327934 (antisense eG*eG*eT*eA*e[5mC]*eA*eA*eT*e[5mC]*eA*eA*e[5mC]*eG*eG*eT*e[5mC]*eG*eA*eT*eG*eG*eT) [compound 327934]”, the “Fold Increase over UTC” value in the series with preadipocytes was found to be 2.0 fold over UTC. In series [1], the Glut4 was 1.52, the HSL was determined as 1.97, the PPAR gamma was determined as 1.54 and the TG is on record as 1.43. In series [1], the aP2 worked out at 1.50.
Turning to “327889 (antisense eG*eT*eG*eG*eT*eA*eA*eT*e[5mC]*e[5mC]*e[5mC]*eT*eG*eG*e[5mC]*eA*eA*eT*eG*eT*eG*eA*eT) [compound 327889]”, in the series with preadipocytes, the “Fold Increase over UTC” value is listed as 1.1 fold over UTC. For the same substance, in series [1], the Glut4 is 0.99, the HSL amounted to 0.77, the PPAR gamma is recorded as 1.63 and the TG was found to be 1.09. In series [1], the aP2 stood at 1.12.
As for “327890 (antisense eA*eG*e[5mC]*eA*e[5mC]*eA*eA*eA*e[5mC]*eT*eA*e[5mC]*eT*eA*e[5mC]*e[5mC]*eT*e[5mC]*eA) [compound 327890]”, the “Fold Increase over UTC” value with preadipocytes is 1.3 fold over UTC. In addition, in series [1], the Glut4 is on record as 0.37, the HSL stood at 0.42, the PPAR gamma worked out at 1.05 and the TG turned out to be 1.13. In series [1], this substance showed an aP2 of 0.35.
Consider “327905 (antisense e[5mC]*eA*eG*eA*e[5mC]*eT*e[5mC]*e[5mC]*eG*eG*eT*eG*eG*eA*eA*eT*eG*eA*eA*eG*eG*eA) [compound 327905]”, for which the “Fold Increase over UTC” value in the series with preadipocytes stood at 1.5 fold over UTC. For the same substance, in series [1], the Glut4 is on record as 0.58, the HSL came out at 0.65, the PPAR gamma is on record as 1.31 and the TG turned out to be 1.18. Further, the aP2 in series [1] was 0.85. In the series on BJ cells, the “% cells in cell cycle phase G1” value is 100%, the “% cells in cell cycle phase G2/M” value amounted to 109%, the “% cells in cell cycle phase S” value is reported as 77% and the “% cells in cell cycle phase aneuploid” value worked out at 102%. Besides, the “% cells in cell cycle phase subG1” value in the series with BJ cells amounted to 105%.
As to “327919 (antisense eG*eA*eA*eA*e[5mC]*e[5mC]*e[5mC]*eA*eG*e[5mC]*eA*eG*eA*e[5mC]*eA*eA*eT*eG*eT*eA*eG*e[5mC]*eT) [compound 327919]”, in the series with preadipocytes, the “Fold Increase over UTC” value is 1.3 fold over UTC. Moreover, in series [1], the Glut4 is given as 1.82, the HSL is reported as 0.83, the PPAR gamma was determined as 1.80 and the TG amounted to 1.15. Further, in series [1], the aP2 came to 1.20.
